Ends that are not written are not given here.
Legend:
caspase-3 in 4T1 cells = assay: Caspase-3 activity assay in cell lysate; format: cell-based, murine; settings: 100 μM CKS1, indicated time, fluorescence divided by protein concentration, N = 3
Procedure: 1.0 × 10^4 4T1 cells were seeded in 96-well plates and incubated overnight. After CKS1 treatment, the cells were lysed using lysis buffer (Cell Signaling Technology, #7018). The activity of caspase-3 in the cell lysate was quantified using the caspase-3 activity assay kit (Cell Signaling Technology, #5723) following the manufacturer’s instructions. Briefly, the cell lysate was incubated with a substrate of caspase-3 which was designed to emit fluorescence when cleaved. After incubation, the fluorescence was measured using a plate reader. The protein concentration of the cell lysate was quantified using the DC protein assay kit (Bio-Rad, Hercules, CA). The caspase-3 activity was divided by the protein concentration to obtain the caspase-3 activity per μg/mL protein in the cell lysate.

4T1 cells [1] = assay: JC-1 mitochondrial membrane potential imaging; format: cell-based, murine; settings: 100 μM CKS1, live cell imaging, 25 cells, representative of N = 3
Procedure: (§1) Fluorescence labeling of cells was performed by seeding 5.0 × 10^4 4T1 cells in a 35mm dish on a collagen-coated No. 1.5 coverslip with a 14 mm glass diameter (MatTek, Ashland, MA). After overnight incubation, the cells were washed once with serum free media and replaced with fresh serum free media. For cell membrane labeling, NR12S (R&D Systems, Minneapolis, MN, #7509) was added at a final concentration of 0.3 μM and incubated for 30 minutes. For cell cytosol labeling, Calcein-AM (Thermo Fisher Scientific, C1430) was added at a final concentration of 5 μg/mL and incubated for 10 minutes. For mitochondrial membrane labeling, JC-1 (Thermo Fisher Scientific, T3168) was added at a final concentration of 10 μg/mL and incubated for 10 minutes. For nuclear staining, Hoechst 33342 (Cell Signaling Technology, #4082) was added at a final concentration of 5 μg/mL and incubated for 10 minutes.
(§2) Cells were imaged on either a Zeiss LSM 700 or a 3i spinning disk confocal microscope. Samples were imaged with optimized microscope settings. Z-stack, time-lapse, or multi-channel acquisition settings were adjusted based on the experimental requirements. Images were then acquired with the appropriate excitation and emission wavelengths for each fluorophore.
(§3) Image analysis was performed using Fiji software. For each image/video, the brightness and the contrast were adjusted. […]

4T1 cells [2] = assay: xCELLigence real-time cell viability assay (RTCA); format: cell-based, murine; settings: serum free media, representative of N = 3
Procedure: 3,000 cells were seeded in the wells of an xCELLigence RTCA E-plate 16 (Agilent, Santa Clara, CA). After the cells adhered to the plate, the media was replaced with serum free media, and the cells were treated with CKS1 at the indicated concentrations. The viability of the cells was monitored using the xCELLigence RTCA analyzer (Agilent).

4T1 cells [3] = assay: Fluorescence live cell imaging, calcein-AM stained cytosol; format: cell-based, murine; settings: 100 μM CKS1, live cell imaging
Procedure: as §1, §2, §3

4T1 cells [4] = assay: Transmission electron microscopy of cell morphology; format: cell-based, murine; settings: 100 μM CKS1, 30 minutes
Procedure: Samples were fixed in 2.5% glutaraldehyde, 3 mM MgCl2 in 0.1 M sodium cacodylate buffer, pH 7.2 overnight at 4°C. After buffer rinse, samples were postfixed in 2% osmium tetroxide in 0.1 M sodium cacodylate for at least one hour (no more than two) on ice in the dark. After osmium, samples were rinsed in 0.1 M Maleate buffer (pH 6.2), followed by uranyl acetate in 0.1 M Maleate (0.22 μm filtered, 1 h, dark), dehydrated in a graded series of ethanol and embedded in Epon (PolySci) resin. Samples were polymerized at 60°C overnight. Thin sections, 60 to 90 nm, were cut with a diamond knife on a Leica UCT ultramicrotome and picked up with 2×1 mm Formvar copper slot grids. Grids were stained with 2% uranyl acetate (aq.) followed by lead citrate and observed with a Hitachi 7600 TEM at 80 kV. Images were captured with an AMT CCD XR80 (8-megapixel camera - side mount AMT XR80 – high-resolution highspeed camera).

[5] = test system: NIH/3T3 normal fibroblasts; assay: LDH release (CyQUANT LDH cytotoxicity assay); format: cell-based, murine; settings: NIH/3T3 fibroblasts, indicated concentration of CKS1, 6 hours; N = 3
Procedure: (§5) 1.0 × 10^4 cells were seeded in a 96-well plate and incubated overnight. The cells were washed once, and the medium was replaced with serum free media. Cells were treated with CKS1 for the indicated time and concentration. CyQUANT LDH cytotoxicity assay (Thermo Fisher Scientific) was used following the manufacturer’s instructions to measure the release of LDH. LDH release was normalized to the amount of LDH released from cells treated with lysis buffer.

[6] = test system: human umbilical vein endothelial cells (HUVECs); assay: LDH release (CyQUANT LDH cytotoxicity assay); format: cell-based; settings: indicated concentration of CKS1, 6 hours, N = 3
Procedure: as §5

glioma = glioma model; cited from earlier work
Source text: (§4) Chemokinostatin-1 (CKS1) is a 24-mer peptide originally discovered as an anti-angiogenic peptide. Karagiannis and Popel developed a computational method to identify anti-angiogenic sequences contained in the human proteome and discovered common sequences conserved within protein domains contained in angiogenesis-related proteins. CKS1 is derived from a sequence shared in the CXC chemokine family.

[7] = test system: triple-negative breast cancer (TNBC); settings: triple-negative breast cancer (TNBC) model; cited from earlier work
Source text: as §4

Substance: NGRKACLNPASPIVKKIIEKMLNS-NH2 [CKS1, Chemokinostatin-1]
- Activity of caspase-3 (caspase-3 in 4T1 cells): increased
- Mitochondrial membrane potential (JC-1 green/red fluorescence) (4T1 cells [1]): rapidly diminishes the mitochondrial membrane potential
- Time after treatment at which cell death (reduction in cell index) was observed (4T1 cells [2]; 4T1 cells, 3,000 cells per well): ≤ 1 h
- Dose dependence of cell death (reduction in cell index) (4T1 cells [2]; 4T1 cells): dose-dependent
- Events after treatment in calcein-AM stained cells (4T1 cells [3]): influx of the surrounding media into the cells
- Cell membrane integrity by electron microscopy (4T1 cells [4]): ruptured
- Nuclear membrane integrity by electron microscopy (4T1 cells [4]): not ruptured
- Cell death (release of LDH) in non-cancerous cells [5]: did not induce cell death
- Cell death (release of LDH) in non-cancerous cells [6]: did not induce cell death
- Suppression of tumor growth (glioma): efficacy in suppressing tumor growth was demonstrated
- Suppression of tumor growth [7]: efficacy in suppressing tumor growth was demonstrated

From article PMC10602061 (Research Square, 2023)
